Measurements published in ChEMBL document CHEMBL5518172, “Discovery of hydroxamate as a promising scaffold dually inhibiting metallo- and serine-β-lactamases” (Eur J Med Chem, 2024).
Active and inactive are the calls of the source. The calls are words filed in the database; no cut-off is given here.

Columns and labels:
Bacteria [1] = assay: Inhibition of recombinant serine beta lactamase KPC-2 (unknown origin) expressed in Escherichia coli BL21 (DE3) cells using meropenem as substrate at 20 uM by spectrometric analysis relative to control
Bacteria [2] = assay: Inhibition of recombinant serine beta lactamase OXA-48 (unknown origin) expressed in Escherichia coli BL21 (DE3) cells using meropenem as substrate at 20 uM by spectrometric analysis relative to control
[3] = molecular target: Metallo-beta-lactamase type 2 (Bacteria, UniProt C7C422); assay: Inhibition of recombinant NDM-1 (unknown origin) expressed in Escherichia coli BL21 (DE3) cells using meropenem as substrate by spectrometric analysis
Metallo-beta-lactamase type 2, sequence (C7C422 whole entry): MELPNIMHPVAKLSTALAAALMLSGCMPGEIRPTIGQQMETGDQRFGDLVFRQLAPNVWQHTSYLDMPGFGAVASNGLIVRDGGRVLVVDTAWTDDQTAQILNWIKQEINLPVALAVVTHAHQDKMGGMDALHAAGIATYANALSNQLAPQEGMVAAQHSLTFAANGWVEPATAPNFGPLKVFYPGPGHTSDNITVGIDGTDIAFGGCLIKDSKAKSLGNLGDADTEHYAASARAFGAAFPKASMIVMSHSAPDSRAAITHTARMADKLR

[4] = Inhibition of recombinant metallo-beta-lactamase IMP-1 (unknown origin) expressed in Escherichia coli BL21 (DE3) cells using meropenem as substrate by spectrometric analysis; set-up: species or system Bacteria
[5] = Inhibition of recombinant serine beta lactamase OXA-48 (unknown origin) expressed in Escherichia coli BL21 (DE3) cells using meropenem as substrate by spectrometric analysis; set-up: species or system Bacteria
[6] = Inhibition of recombinant serine beta lactamase KPC-2 (unknown origin) expressed in Escherichia coli BL21 (DE3) cells using meropenem as substrate by spectrometric analysis; set-up: species or system Bacteria
Escherichia coli [7] = assay: Synergistic antibacterial activity against Escherichia coli BL21 (DE3) harboring NDM-1 assessed as meropenem MIC at 64 microg/ml measured after 16 hrs by CLSI protocol based broth microdilution method (reference value: 256 microg/ml); type: functional; details: dose 64 µg/ml
Escherichia coli [8] = assay: Synergistic antibacterial activity against Escherichia coli BL21 (DE3) harboring metallo-beta-lactamase IMP-1 assessed as meropenem MIC at 64 microg/ml measured after 16 hrs by CLSI protocol based broth microdilution method (reference value: 64 microg/ml); type: functional; details: dose 64 µg/ml
Escherichia coli [9] = assay: Synergistic antibacterial activity against Escherichia coli BL21 (DE3) harboring serine beta lactamase KPC-2 assessed as meropenem MIC at 64 microg/ml measured after 16 hrs by CLSI protocol based broth microdilution method (reference value: 16 microg/ml); type: functional; details: dose 64 µg/ml
Escherichia coli [10] = assay: Synergistic antibacterial activity against Escherichia coli BL21 (DE3) harboring serine beta lactamase OXA-48 assessed as meropenem MIC at 64 microg/ml measured after 16 hrs by CLSI protocol based broth microdilution method (reference value: 1 microg/ml); type: functional; details: dose 64 µg/ml
Escherichia coli [11] = assay: Synergistic antibacterial activity against Escherichia coli BL21 (DE3) harboring NDM-1 assessed as fold decrease in meropenem MIC at 64 microg/ml measured after 16 hrs by CLSI protocol based broth microdilution method; type: functional; details: dose 64 µg/ml
Escherichia coli [12] = assay: Synergistic antibacterial activity against Escherichia coli BL21 (DE3) harboring metallo-beta lactamase IMP-1 assessed as fold decrease in meropenem MIC at 64 microg/ml measured after 16 hrs by CLSI protocol based broth microdilution method; type: functional; details: dose 64 µg/ml
Escherichia coli [13] = assay: Synergistic antibacterial activity against Escherichia coli BL21 (DE3) harboring serine beta lactamase OXA-48 assessed as fold decrease in meropenem MIC at 64 microg/ml measured after 16 hrs by CLSI protocol based broth microdilution method; type: functional; details: dose 64 µg/ml
Escherichia coli [14] = assay: Synergistic antibacterial activity against Escherichia coli BL21 (DE3) harboring NDM-1 assessed as decrease in bacterial colony at 128 microg/ml incubated for 12 hrs in presence of meropenem by imaging analysis; type: functional, organism-based; details: dose 128.0 µg/ml
Escherichia coli [15] = assay: Synergistic antibacterial activity against Escherichia coli BL21 (DE3) harboring metallo-beta-lactamase IMP-1 assessed as decrease in bacterial colony at 128 microg/ml incubated for 12 hrs in presence of meropenem by imaging analysis; type: functional, organism-based; details: dose 128.0 µg/ml
Escherichia coli [16] = assay: Synergistic antibacterial activity against Escherichia coli BL21 (DE3) harboring serine beta lactamase KPC-2 assessed as decrease in bacterial colony at 128 microg/ml incubated for 12 hrs in presence of meropenem by imaging analysis; type: functional, organism-based; details: dose 128.0 µg/ml
Escherichia coli [17] = assay: Synergistic antibacterial activity against Escherichia coli BL21 (DE3) harboring serine beta lactamase OXA-48 assessed as decrease in bacterial colony at 128 microg/ml incubated for 12 hrs in presence of meropenem by imaging analysis; type: functional, organism-based; details: dose 128.0 µg/ml
Escherichia coli [18] = assay: Synergistic antibacterial activity against Escherichia coli clinical isolate 10 assessed as decrease in bacterial colony at 128 microg/ml incubated for 12 hrs in presence of meropenem by imaging analysis; type: functional, organism-based; details: dose 128.0 µg/ml
Escherichia coli [19] = assay: Synergistic antibacterial activity against Escherichia coli harboring serine beta-lactamase OXA-48 infected in Kunming mouse model assessed as reduction in bacterial load in liver at 20 mg/kg, ip co-administered with 1 mg/kg of meropenem; type: functional, organism-based
Escherichia coli [20] = assay: Antibacterial activity against Escherichia coli harboring serine beta-lactamase OXA-48 infected in Kunming mouse model assessed as reduction in bacterial load in liver at 20 mg/kg, ip; type: functional, organism-based
Escherichia coli [21] = assay: Antibacterial activity against Escherichia coli harboring serine beta-lactamase OXA-48 infected in Kunming mouse model assessed as reduction in bacterial load in spleen at 20 mg/kg, ip; type: functional, organism-based
[22] = Cytotoxicity against mouse L929 cells assessed as cell viability upto 200 uM incubated for 48 hrs by CCK8 assay relative to control; type: toxicity, cell-based; details: read-out: Activity

**Q.** With CC(C)COC(=O)ONC(=O)CCC1CCCCC1 as the molecule, how does the inhibition (Bacteria [1]) read?
**A.** > 90%

**Q.** What about the inhibition (Bacteria [2]) of the same molecule?
**A.** > 90%

**Q.** What about the IC50 [3] of the same molecule?
**A.** 4.73 µM

**Q.** And the IC50 [4]?
**A.** 4.49 µM

**Q.** What about the IC50 [5] of the same molecule?
**A.** 2.05 µM

**Q.** And the IC50 [6]?
**A.** 0.69 µM

**Q.** And the MIC (Escherichia coli [7])?
**A.** 64 µg/mL

**Q.** What about the MIC (Escherichia coli [8]) of the same molecule?
**A.** 32 µg/mL

**Q.** What about the MIC (Escherichia coli [9]) of the same molecule?
**A.** 16 µg/mL

**Q.** And the MIC (Escherichia coli [10])?
**A.** 0.063 µg/mL

**Q.** And the “fold change (FC)” value (Escherichia coli [11])?
**A.** 2

**Q.** And the “fold change (FC)” value (Escherichia coli [12])?
**A.** 2

**Q.** And the “fold change (FC)” value (Escherichia coli [13])?
**A.** 16

**Q.** What about the Activity (Escherichia coli [14]) of the same molecule?
**A.** Active

**Q.** What about the Activity (Escherichia coli [15]) of the same molecule?
**A.** Active

**Q.** What about the Activity (Escherichia coli [16]) of the same molecule?
**A.** Active

**Q.** What about the Activity (Escherichia coli [17]) of the same molecule?
**A.** Active

**Q.** And the Activity (Escherichia coli [18])?
**A.** Active

**Q.** And the Activity (Escherichia coli [19])?
**A.** Active

**Q.** What about the Activity (Escherichia coli [20]) of the same molecule?
**A.** inactive

**Q.** And the Activity (Escherichia coli [21])?
**A.** inactive

**Q.** And the viability at 48 h, up to 200 µM [22]?
**A.** > 80%
